US20060199206A1, “Method for identifying skin care composition-resistant skin-binding peptides” (priority 2005, published 2006)

Columns and labels:
[1] = Phage ELISA for skin binding affinity (Example 14); design: species or system pig; conditions: 1×10^11 pfu of phage, 37° C. 15 min, TBST-0.5% washes; anti-M13 HRP conjugate; mean of at least three replicates
Procedure: (§1) Phage-peptide clones identified in Examples 11-13 were amplified by infecting fresh host cells (E. coli ER2338). The pigskin-bottom 96-well apparatus system described in Examples 11-13 was used for the ELISA procedure. For each clone to be tested, the pigskin well was incubated for 1 h at room temperature with 400 μL of blocking buffer, consisting of 2% non-fat dry milk (Schleicher & Schuell, Inc.) in TBS. The blocking buffer was removed by inverting the systems and blotting them dry with paper towels. The systems were rinsed 6 times with wash buffer consisting of TBST-0.05%. The wells were filled with 100 μL of TBST-0.5% containing 1 mg/mL of BSA and 1×10^11 pfu of phage. The samples were incubated at 37° C. for 15 min with slow shaking. The non-binding phage was removed by washing the wells 10 to 20 times with TBST-0.5%. Then, 100 μL of horseradish peroxidase/anti-M13 antibody conjugate (Amersham USA, Piscataway, N.J.), diluted 1:500 in the blocking buffer, was added to each well and incubated for 1 h at room temperature. The conjugate solution was removed and the wells were washed 6 times with TBST-0.05%. TMB substrate (200 μL), obtained from Pierce Biotechnology (Rockford, Ill.) was added to each well and the color was allowed to develop for between 5 to 30 min, typically for 10 min, at room temperature. Then, stop solution (200 μL of 2 M H2SO4) was added to each well and the solution was transferred to a 96-well plate and the absorbance at 450 nm (A450) was measured using a microplate spectrophotometer (Molecular Devices, Sunnyvale, Calif.). The resulting absorbance values, reported as the mean of at least three replicates, and the standard error of the mean (SEM) are given in Table 2.

[2] = Phage ELISA for skin binding affinity after body wash treatment (Example 15); design: species or system pig; conditions: mean of at least three replicates; for Body Wash A450 ± SEM: 200 μL Johnson's Head-to-Toe Baby Wash for 30 min after phage binding; for Buffer Wash A450 ± SEM: procedure of Example 14
Procedure: as §1
The ELISA procedure described in Example 14 was used with the following modification. After removal of the non-binding phage peptide solution from the wells, 200 μL of Johnson's Head-to-Toe Baby Wash was added to the wells and was incubated for 30 min. The washes and color development steps described in Example 14 were followed. For the buffer wash samples, the same procedure described in Example 14 was used. […] The resulting absorbance values, reported as the mean of at least three replicates, and the standard error of the mean are given in Table 3.

[3] = stated as known; cited from earlier work

| Substance | A450 ± SEM [1] | Body Wash A450 ± SEM [2] | Buffer Wash A450 ± SEM [2] | binding affinity for skin [3] |
| --- | --- | --- | --- | --- |
| SGCHLVYDNGFCDH (Body wash-resistant skin-binding peptide) [Skin-cys-1] | 1.385 ± 0.046 | 1.444 ± 0.293 | 1.182 ± 0.070 |  |
| TMGFTAPRFPHY (Body wash-resistant skin-binding peptide) [Skin-12mer-1] | 0.506 ± 0.097 |  |  |  |
| SPYPSWSTPAGR (Body wash-resistant skin-binding peptide) [Skin-12mer-9] | 1.146 ± 0.131 | 2.265 ± 0.132 | 1.298 ± 0.11 |  |
| IB5: hair-binding phage peptide (Huang et al.) used as control, known low binding affinity for skin (TPPELLHGDPRS; Hair-binding peptide) |  | 0.453 ± 0.035 | 0.202 ± 0.010 | low binding affinity for skin |
| DWCDTIIPGRTCHG (Body wash-resistant skin-binding peptide) [Skin-cys-6] | 1.657 ± 0.047 |  |  |  |
| NQAASITKRVPY (Body wash-resistant skin-binding peptide) [Skin-12mer-5] | 0.391 ± 0.036 |  |  |  |
| ASCPSASHADPCAH (Body wash-resistant skin-binding peptide) [Skin-cys-2] | 1.184 ± 0.044 |  |  |  |
| NLCDSARDSPRCKV (Body wash-resistant skin-binding peptide) [Skin-cys-3] | 0.927 ± 0.044 |  |  |  |
| VQPITNTRYEGG (Body wash-resistant skin-binding peptide) [Skin-12mer-10] | 0.418 ± 0.036 |  |  |  |
| SDTISRLHVSMT (Body wash-resistant skin-binding peptide) [Skin-12mer-7] | 1.134 ± 0.093 |  |  |  |
| D21: hair-binding phage peptide used as control in Example 15, known low binding affinity for skin (RTNAADHPAAVT; Hair-binding sequence) [Clone D21, reference compound] |  | 0.549 ± 0.053 | 0.297 ± 0.004 | low binding affinity for skin |
| WPMHPEKGSRWS (Body wash-resistant skin-binding peptide) [Skin-12mer-11] | 0.81 ± 0.038 |  |  |  |
| GSSTVGRPSLYE (Body wash-resistant skin-binding peptide) [Skin-12mer-6] | 0.677 ± 0.104 |  |  |  |
| QLSYHAYPQANHHAP (Body wash-resistant skin-binding peptide) [Skin-15mer-1] | 1.264 ± 0.166 | 1.447 ± 0.178 | 1.031 ± 0.045 |  |
| DACSGNGHPNNCDR (Body wash-resistant skin-binding peptide) [Skin-cys-4] | 0.852 ± 0.033 |  |  |  |
| NHSNWKTAADFL (Body wash-resistant skin-binding peptide) [Skin-12mer-4] | 0.874 ± 0.039 |  |  |  |
| SVSVGMKPSPRP (Body wash-resistant skin-binding peptide) [Skin-12mer-2] | 0.818 ± 0.108 |  |  |  |
| SPLTVPYERKLL (Body wash-resistant skin-binding peptide) [Skin-12mer-8] | 0.433 ± 0.05 |  |  |  |
